Data: patent US20100261711A1, “SELECTIVE ANTICONVULSANT AGENTS AND THEIR USES” (WiSys Technology Foundation, priority 2009, published 2010)
Marks after values point to notes of the source that are not given here.

Tests used:
Format in all cases: in vivo
[1] = test system: MES-induced seizures; experiment: Maximal electroshock test (MES), mice
[2] = test system: Metrazol-induced clonic seizures; experiment: Subcutaneous Metrazol test (scMet), mice
[3] = test system: minimal muscular or neurological impairment; experiment: Toxicity (TOX), rotorod procedure, mice
[4] = test system: MES-induced seizures; experiment: Maximal electroshock test (MES), rats; conditions: for MES, animals protected/tested: 30 mg/kg
Method: The benzodiazepine derivative compounds selective for GABAa receptor subunits were tested for the ability to suppress seizures in several standard rat and mouse models of epilepsy. […] The standard models incorporated into anticonvulsant screening include the maximal electroshock test (MES), the subcutaneous Metrazol test (scMet), and evaluations of toxicity (TOX). The data for each condition is presented as a ratio of either the number of animals protected or toxic (loss of locomotor activity) over the number of animals tested at a given time point and dose.
The MES is a model for generalized tonic-clonic seizures and provides an indication of a compound's ability to prevent seizure spread when all neuronal circuits in the brain are maximally active. These seizures are highly reproducible and are electrophysiologically consistent with human seizures. For all tests based on MES convulsions, 60 Hz of alternating current (50 mA in mice, 150 in rats) is delivered for by corneal electrodes which have been primed with an electrolyte solution containing an anesthetic agent (0.5% tetracaine HCL). For Test 1, mice are tested at various intervals following doses of 30, 100 and 300 mg/kg of test compound given by ip injection of a volume of 0.01 mL/g. In Test 2, rats are tested after a dose of 30 mg/kg (po) in a volume of 0.04 mL/g. Test 8 uses varying doses administered via i.p. injection, again in a volume of 0.04 ml/g. […] In Antiepileptic Drugs, Levy, R. H. M., Meldrum, B. S., Eds.; Raven Press: New York, pp 99-110, 1995b.).

[5] = test system: Metrazol-induced clonic seizures; experiment: Subcutaneous Metrazol test (scMet), rats
[6] = Toxicity (TOX), minimal motor deficit, rats; conditions: in vivo; Rat IP
[7] = test system: minimal motor deficit (ataxia, abnormal gait); experiment: Toxicity (TOX), minimal motor deficit, rats; conditions: for TOX (Rotorod Test), animals toxic/tested: Rat IP, 100 mg/kg
[8] = test system: 6 Hz psychomotor seizure; experiment: Minimal clonic seizure (6 Hz) test; conditions: Mice IP; for 6 Hz, animals protected/tested: 100 m/k, 44 mA
Outline: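 Mice dosed ip with test compound before 6 Hz corneal-type electrical stimulation lasting 3 s. Protection scored as absence of minimal clonic phase and stereotyped automatistic behaviour seen in untreated animals.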

[9] = Mice, 50 mg/kg PO (Mice IP), 0.5 hr
[10] = Mice, 50 mg/kg PO (Mice IP), 4.0 hr

C#Cc1ccc2c(c1)C(c1ccccc1F)=NCc1c(C(=O)OCC)ncn1-2 [JY-XHe-053 (15), Ethyl-8-acetyleno-6-(2′-fluorophenyl)-4H-benzo[f]imidazo[1,5-a][1,4]diazepine-3-carboxylate]
MES, animals protected/tested ([1]; Mice IP, 100 mg/kg, 0.5 hr): 0/3
MES, animals protected/tested ([1]; Mice IP, 100 mg/kg, 4.0 hr): 0/3
MES, animals protected/tested [1, 9]: 1/4
MES, animals protected/tested [1, 10]: 0/4
ED50 ([1]; Mus musculus, Mice IP): > 200 mg/kg
scMet, animals protected/tested ([2]; Mice IP, 100 mg/kg, 0.5 hr): 5/5
scMet, animals protected/tested ([2]; Mice IP, 100 mg/kg, 4.0 hr): 0/1
scMet, animals protected/tested [2, 9]: 3/4
scMet, animals protected/tested [2, 10]: 4/4
ED50 ([2]; Mus musculus, Mice IP): 8.87 mg/kg
TOX (Rotorod Test), animals toxic/tested ([3]; Mice IP, 100 mg/kg, 0.5 hr): 6/8
TOX (Rotorod Test), animals toxic/tested ([3]; Mice IP, 100 mg/kg, 4.0 hr): 0/4
TD50 TOX ([3]; Mice IP, rotorod): > 400 mg/kg
TOX (Rotorod Test), animals toxic/tested [3, 9]: 0/4
TOX (Rotorod Test), animals toxic/tested [3, 10]: 0/4
ED50 ([4]; Rat IP): > 30 mg/kg
ED50 ([4]; Rat PO): > 250 mg/kg
MES, animals protected/tested ([4]; Rat PO, 0.5 h): 0/4
MES, animals protected/tested ([4]; Rat PO, 1.0 h): 0/4
MES, animals protected/tested ([4]; Rat PO, 2.0 h): 0/4
MES, animals protected/tested ([4]; Rat PO, 4.0 h): 1/4
MES, animals protected/tested ([4]; Rat PO, 6.0 h): 0/4
ED50 ([5]; Rat IP): 18.2 mg/kg
scMet, animals protected/tested ([5]; Rat IP, 100 mg/kg, 0.5 hr): 3/4
scMet, animals protected/tested ([5]; Rat IP, 100 mg/kg, 4.0 hr): 3/4
ED50 ([5]; Rat PO): 23.7 mg/kg
scMet, animals protected/tested ([5]; Rat PO, 40 mg/kg, 4.0 h): 2/4^e
scMet, animals protected/tested ([5]; Rat PO, 40 mg/kg, 6.0 h): 2/4^e
scMet, animals protected/tested ([5]; Rat PO, 50 mg/kg, 0.5 h): 3/4
scMet, animals protected/tested ([5]; Rat PO, 50 mg/kg, 1.0 h): 3/4
scMet, animals protected/tested ([5]; Rat PO, 50 mg/kg, 2.0 h): 1/4
scMet, animals protected/tested ([5]; Rat PO, 50 mg/kg, 4.0 h): 4/4
scMet, animals protected/tested ([5]; Rat PO, 50 mg/kg, […]): 1/4
TD50 [6]: 69.6 mg/kg
TOX (Rotorod Test), animals toxic/tested ([7]; 0.5 hr): 0/4
TOX (Rotorod Test), animals toxic/tested ([7]; 4.0 hr): 0/4
Tox, animals toxic/tested ([7]; Rat PO, 40 mg/kg, 4.0 h): 0/4^e
Tox, animals toxic/tested ([7]; Rat PO, 40 mg/kg, 6.0 h): 0/4^e
Tox, animals toxic/tested ([7]; Rat PO, 50 mg/kg, 0.5 h): 0/4
Tox, animals toxic/tested ([7]; Rat PO, 50 mg/kg, 1.0 h): 0/4
Tox, animals toxic/tested ([7]; Rat PO, 50 mg/kg, 2.0 h): 0/4
Tox, animals toxic/tested ([7]; Rat PO, 50 mg/kg, 4.0 h): 0/4
Tox, animals toxic/tested ([7]; Rat PO, 50 mg/kg, […]): 0/4
TD50 TOX ([7]; Rat PO, abnormal gait): >500 mg/kg
motor impairment / sedative or locomotor effects ([7]; rats, oral administration, up to 500 mg/kg): No motor impairment
6 Hz, animals protected/tested ([8]; 0.5 hr): 4/4
6 Hz, animals protected/tested ([8]; 1.0 hr): 2/4
6 Hz, animals protected/tested ([8]; 2.0 hr): 2/4
6 Hz, animals protected/tested ([8]; 4 hr): 0/4
6 Hz, animals protected/tested ([8]; […]): 2/4
ED50 ([8]; Mus musculus, ip, 32 mA, read-out: ED50 32 mA (6 Hz test)): 39.2 mg/kg
